Substitutions are numbered along the chain they refer to.
Experiments:
[1] = system: TRIM24, GREB1 distal ERE, MCF7 cells; assay: ChIP of TRIM24 at GREB1 ERE's; assay type: cell-based; conditions: 10 nM estradiol, six hours
[2] = system: ERα, GREB1 distal ERE, MCF7 cells; assay: ChIP of ERα at GREB1 ERE's; assay type: cell-based; conditions: 10 nM estradiol, six hours
[3] = biological target: T1, TRIM24 PHD-Bromo (F979A/N980A) (Homo sapiens, UniProt O15164, F979A/N980A); assay: ITC binding of histone peptides
T1 sequence (O15164 824-1006 F979A/N980A): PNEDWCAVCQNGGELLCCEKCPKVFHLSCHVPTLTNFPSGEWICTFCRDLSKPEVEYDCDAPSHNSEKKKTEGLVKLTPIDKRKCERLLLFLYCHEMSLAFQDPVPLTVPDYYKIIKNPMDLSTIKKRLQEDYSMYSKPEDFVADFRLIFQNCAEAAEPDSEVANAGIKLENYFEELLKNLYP

TRIM24 PHD-Bromo (WT) = biological target: T2, TRIM24 PHD-Bromo (WT) (Homo sapiens, UniProt O15164); assay: ITC binding of histone peptides; conditions: PHD-Bromo (bromodomain binding)
T2 sequence (O15164 824-1006): T1 sequence (O15164 824-1006 F979A/N980A) with A156F, A157N

C[C@]12CC[C@@H]3c4ccc(O)cc4CC[C@H]3[C@@H]1CC[C@@H]2O [estradiol]
increase of TRIM24 binding [1]: 6 fold | increase of ERα binding [2]: 7 fold

H3(13-32)K23ac: H3(13–32) peptide bearing acetylated K23; ITC values are those of the -Bio form
binding affinity in words [3]: loses most of the binding affinity

H3(13-32)K27ac: H3(13–32) peptide, K27ac; ITC values are those of the -Bio form
binding affinity in words (TRIM24 PHD-Bromo (WT)): weak binding affinity
